As usually defined, the IC50 is the midpoint of a concentration-inhibition curve.

Counter-ions that a name gives are not always drawn.

Results on 29 molecules are retold here after patent US8198456B2, “Dihydropyridine derivatives as useful as protein kinase inhibitors” (Bayer Intellectual Property GmbH, priority 2006, dated 2012).

The experiment deals with T1, recombinant human c-MET kinase enzyme domain (Homo sapiens, UniProt P08581).
T1 construct: Recombinant c-Met kinase domain (amino acids 960-1390); His (N); made in house; host or cells: baculovirus expression system (insect cells; SF21 is named only for the alternative format)
T1 sequence (P08581 960-1390): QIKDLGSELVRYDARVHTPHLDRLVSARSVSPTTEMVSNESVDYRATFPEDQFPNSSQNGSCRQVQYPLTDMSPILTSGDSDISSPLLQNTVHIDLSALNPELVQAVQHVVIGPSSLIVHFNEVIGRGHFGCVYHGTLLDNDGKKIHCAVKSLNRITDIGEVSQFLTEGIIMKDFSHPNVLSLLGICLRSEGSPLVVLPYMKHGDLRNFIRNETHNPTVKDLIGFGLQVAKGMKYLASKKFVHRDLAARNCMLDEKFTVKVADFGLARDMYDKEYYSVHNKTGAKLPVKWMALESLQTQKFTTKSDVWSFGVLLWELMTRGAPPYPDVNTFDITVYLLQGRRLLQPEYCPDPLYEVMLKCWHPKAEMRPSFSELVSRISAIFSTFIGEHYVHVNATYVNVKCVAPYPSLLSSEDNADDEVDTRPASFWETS
The experiment in a line: c-MET receptor tyrosine kinase Homogeneous Time Resolved Fluorescence assay (HTRF). In kind it is biochemical. As to conditions: Biological Example 1 and/or Biological Example 2. The source says: Recombinant c-Met kinase domain (amino acids 960-1390) was produced in a baculovirus expression vector as an N-terminal His-tagged fusion protein and purified on a NiNTA column. The resulting purified enzyme was then used in the following c-Met Homogeneous Time Resolved Fluorescence assay (HTRF) to find compounds of the invention and to perform initial activity determinations. Specifically, this assay measures the ability of compounds of the invention to inhibit the phosphorylation of a randomly synthesized, biotinylated heterocopolymeric polypeptide composed of glutamic acid and tyrosine, with an average length of 100 aa. The assay analyzes the amount of phosphorylated polypeptide produced.
The enzymatic phosphorylation of the biotinylated heterocopolymeric polypeptide was performed in a black 384-well plate at ambient temperature in a reaction mixture containing 50 mM HEPES (pH 7.4), 5 mM MgCl2, 5 mM MnCl2, 0.01% Tween-20, and 2 mM DTT, […] recombinant human c-MET kinase enzyme domain, 37 nM biotinylated heterocopolymeric polypeptide composed of glutamic acid and tyrosine, 20 μM ATP, 1% DMSO in the absence or presence of a compound of the invention. The reaction was stopped after a 20-minute incubation by the addition of 80 mM EDTA.
The formation of phosphorylated heterocopolymeric, biotinylated polypeptide was quantified with the HTRF assay technology using an anti-phosphotyrosine antibody, PT66, conjugated to europium cryptate, mixed with a streptavidin-XL665 conjugate. Reduced or inhibited phosphorylation of the heterocopolymeric, biotinylated polypeptide prevents the anti-phosphotyrosine antibody from binding to the peptide, resulting in a loss of energy transfer to the streptavidin-XL665 conjugate.
Following the 384-well enzymatic phosphorylation reaction outlined above, the detection of phosphorylated heterocopolymeric, biotinylated polypeptide was performed by dilution of the stopped reaction mixture 2-fold with 50 mM HEPES (pH 7.0), 500 mM KF, 0.1% BSA, streptavidin-XL665 (20 nM), and anti-phosphotyrosine antibody PT66-crypate conjugate (6.4 ng/well) and incubation for four hours at ambient temperature. Plates were read in an Envision plate reader (PerkinElmer Life and Analytical Sciences, Inc., MA) simultaneously at 620 nm and 665 nm to obtain signal ratios of 665 nm/620 nm. Results of energy transfer were expressed as signal ratios of 665 nm/620 nm. Negative controls were samples without recombinant c-MET or c-MET treated with 100 mM EDTA.
For determination of IC50 values of particular compounds of the invention, eight serially diluted compound concentrations (at 1:3.16 dilution) were used in the assay. Controls without a compound of the invention or with a reference compound were run in parallel in the same assay plate.
As for `CC1=C(C#N)C(c2ccc3[nH]nc(-c4ccc(N5CCNCC5)cc4)c3c2)C(C#N)=C(C)N1` [compound 111, 1,4-dihydro-2,6-dimethyl-4-[3-[4-(1-piperazinyl)phenyl]-1H-indazol-5-yl]-3,5-pyridinedicarbonitrile], the IC50 was < 100 nM.

As for `CC1=C(C#N)C(c2ccc3[nH]nc(NC(=O)c4ccccc4)c3c2)C(C#N)=C(C)N1` [compound 129, N-[5-(3,5-dicyano-1,4-dihydro-2,6-dimethyl-4-pyridinyl)-1H-indazol-3-yl]-benzamide], the IC50 was < 100 nM.

In the case of `CC1=C(C#N)C(c2ccc3[nH]nc(NCCN4CCCC4)c3c2)C(C#N)=C(C)N1` [compound 309, 1,4-dihydro-2,6-dimethyl-4-[3-[[2-(1-pyrrolidinyl)ethyl]amino]-1H-indazol-5-yl]-3,5-pyridinedicarbonitrile], the IC50 is < 100 nM.

`CC1=C(C#N)C(c2cccc(NC(=O)CBr)c2)C(C#N)=C(C)N1` [compound 47, 2-bromo-N-[3-(3,5-dicyano-1,4-dihydro-2,6-dimethyl-4-pyridinyl)phenyl]-acetamide]: the IC50 lay within 500 to 2500 nM.

In the case of `CC1=C(C#N)C(c2ccc3[nH]nc(-c4cn[nH]c4)c3c2)C(C#N)=C(C)N1` [compound 173, 1,4-dihydro-2,6-dimethyl-4-[3-(1H-pyrazol-4-yl)-1H-indazol-5-yl]-3,5-pyridinedicarbonitrile], the IC50 is < 100 nM.

On to `CC1=C(C#N)C(c2ccc3[nH]ncc3c2)C(C#N)=C(c2ccc(N(C)CCO)nc2)N1` (centres unmarked) [compound 273, 1,4-dihydro-6′-[(2-hydroxyethyl)methylamino]-4-(1H-indazol-5-yl)-6-methyl-[2,3′-bipyridine]-3,5-dicarbonitrile], for which the IC50 was < 100 nM.

On to `CC1=C(C#N)C(c2ccc3[nH]nc(-c4cnn(C5CCNCC5)c4)c3c2)C(C#N)=C(C)N1` [compound 157, 1,4-dihydro-2,6-dimethyl-4-[3-[1-(4-piperidinyl)-1H-pyrazol-4-yl]-1H-indazol-5-yl]-3,5-pyridinedicarbonitrile], for which the half-maximal inhibitory concentration (IC50) was < 100 nM.

In the case of `CC1=C(C#N)C(c2cccc(C(=O)Nc3ccccn3)n2)C(C#N)=C(C)N1` [compound 192, 3′,5′-dicyano-1′,4′-dihydro-2′,6′-dimethyl-N-2-pyridinyl-[2,4′-bipyridine]-6-carboxamide], the IC50 is < 100 nM.

As for `CC1=C(C#N)C(c2ccc3[nH]nc(-c4ccc(N5CCN(C)CC5)cc4)c3c2)C(C#N)=C(C)N1` [compound 140, 1,4-dihydro-2,6-dimethyl-4-[3-[4-(4-methyl-1-piperazinyl)phenyl]-1H-indazol-5-yl]-3,5-pyridinedicarbonitrile], the IC50 was < 100 nM.

In the case of `CC1=C(C#N)C(c2ccc3[nH]nc(CN4CCN(c5ccncc5)CC4)c3c2)C(C#N)=C(C)N1` [compound 130, 1,4-dihydro-2,6-dimethyl-4-[3-[[4-(4-pyridinyl)-1-piperazinyl]methyl]-1H-indazol-5-yl]-3,5-pyridinedicarbonitrile], the IC50 was in the range of 500 to 2500 nM.

In the case of `CC1=C(C#N)C(c2ccc3[nH]nc(N)c3c2)C(C#N)=C(c2ccoc2C)N1` (centres unmarked) [compound 282, 4-(3-amino-1H-indazol-5-yl)-1,4-dihydro-2-methyl-6-(2-methyl-3-furanyl)-3,5-pyridinedicarbonitrile], the IC50 is < 100 nM.

Consider `CC1=C(C#N)C(c2ccc3[nH]ncc3c2)C(C#N)=C(c2ccco2)N1` (centres unmarked) [compound 267, 2-(2-furanyl)-1,4-dihydro-4-(1H-indazol-5-yl)-6-methyl-3,5-pyridinedicarbonitrile], for which the IC50 is < 100 nM.

As for `CC1=C(C#N)C(c2cccc(C(=O)Nc3nccs3)c2)C(C#N)=C(C)N1` [compound 61, 3-(3,5-dicyano-1,4-dihydro-2,6-dimethyl-4-pyridinyl)-N-2-thiazolyl-benzamide], the IC50 lay in the range of 100 to 500 nM.

For `CC1=C(C#N)C(c2ccc3[nH]ncc3c2)C(C#N)=C(C)N1C` [compound 289, 1,4-dihydro-4-(1H-indazol-5-yl)-1,2,6-trimethyl-3,5-pyridinedicarbonitrile], the half-maximal inhibitory concentration (IC50) is < 100 nM.

For the molecule `CCN(CC)CC(=O)Nc1n[nH]c2ccc(C3C(C#N)=C(C)NC(C)=C3C#N)cc12` [compound 141, N-[5-(3,5-dicyano-1,4-dihydro-2,6-dimethyl-4-pyridinyl)-1H-indazol-3-yl]-2-(diethylamino)-acetamide], the IC50 is 500 to 2500 nM.

`COC(=O)Nc1ccc(-c2n[nH]c3ccc(C4C(C#N)=C(C)NC(C)=C4C#N)cc23)cc1` [compound 123, [4-[5-(3,5-dicyano-1,4-dihydro-2,6-dimethyl-4-pyridinyl)-1H-indazol-3-yl]-phenyl]-carbamic acid methyl ester]: the IC50 fell in the range of 500 to 2500 nM.

For the molecule `CNC(=O)c1cccc(C2C(C#N)=C(C)NC(c3ccc(N)cc3)=C2C#N)c1` (centres unmarked) [compound 238, 3-[2-(4-aminophenyl)-3,5-dicyano-1,4-dihydro-6-methyl-4-pyridinyl]-N-methyl-benzamide], the IC50 lay in the range of 500 to 2500 nM.

Regarding `CC1=C(C#N)C(c2cccc(NC(=O)c3ncc[nH]3)c2)C(C#N)=C(C)N1` [compound 65, N-[3-(3,5-dicyano-1,4-dihydro-2,6-dimethyl-4-pyridinyl)phenyl]-1H-imidazole-2-carboxamide], the IC50 lay in the range of 100 to 500 nM.

With `CC1=C(C#N)C(c2ccc3[nH]nc(CO)c3c2)C(C#N)=C(C)N1` [compound 144, 1,4-dihydro-4-[3-(hydroxymethyl)-1H-indazol-5-yl]-2,6-dimethyl-3,5-pyridinedicarbonitrile], the IC50 was < 100 nM.

For `COc1cccc(-c2n[nH]c3ccc(C4C(C#N)=C(C)NC(C)=C4C#N)cc23)c1` [compound 84, 1,4-dihydro-4-[3-(3-methoxyphenyl)-1H-indazol-5-yl]-2,6-dimethyl-3,5-pyridinedicarbonitrile], the IC50 lay in the range of 100 to 500 nM.

Take `CC1=C(C#N)C(c2ccc3[nH]nc(C(=O)NCCN(C)C)c3c2)C(C#N)=C(C)N1` [103.1, 5-(3,5-dicyano-1,4-dihydro-2,6-dimethyl-4-pyridinyl)-N-[2-(dimethylamino)-ethyl]-1H-indazole-3-carboxamide, TFA salt]: the IC50 was < 100 nM.

As to `CC(=O)Nc1cccc(C2C(C#N)=C(C)NC(C)=C2C#N)c1` [compound 27, N-[3-(3,5-dicyano-1,4-dihydro-2,6-dimethyl-4-pyridinyl)phenyl]-acetamide], the IC50 was in the range of 500 to 2500 nM.

`CC1=C(C#N)C(c2ccc3[nH]nc(-c4nc5ccccc5[nH]4)c3c2)C(C#N)=C(C)N1` [compound 142, 4-[3-(1H-benzimidazol-2-yl)-1H-indazol-5-yl]-1,4-dihydro-2,6-dimethyl-3,5-pyridinedicarbonitrile]: the IC50 was < 100 nM.

Consider `CC1=C(C#N)C(c2cccc(C(=O)NCCC3CCNCC3)c2)C(C#N)=C(C)N1` [compound 26, 3-(3,5-dicyano-1,4-dihydro-2,6-dimethyl-4-pyridinyl)-N-[2-(4-piperidinyl)ethyl]-benzamide], for which the IC50 fell in the range of 100 to 500 nM.

Regarding `CC1=C(C#N)C(c2ccc3[nH]ncc3c2)C(C#N)=C(c2ccc(NCCN(C)C)nc2)N1` (centres unmarked) [compound 275], the IC50 is < 100 nM.

Regarding `CC1=C(C#N)C(c2ccc3[nH]nc(NCC4CCN(C(=O)OC(C)(C)C)CC4)c3c2)C(C#N)=C(C)N1` [compound 131, 4-[[[5-(3,5-dicyano-1,4-dihydro-2,6-dimethyl-4-pyridinyl)-1H-indazol-3-yl]-amino]methyl]-1-piperidinecarboxylic acid 1,1-dimethylethyl ester], the IC50 was in the range of 500 to 2500 nM.

For `CC1=C(C#N)C(c2ccc3[nH]nc(N)c3c2)C(C#N)=C(c2cc(C)oc2C)N1` (centres unmarked) [compound 281, 4-(3-amino-1H-indazol-5-yl)-2-(2,5-dimethyl-3-furanyl)-1,4-dihydro-6-methyl-3,5-pyridinedicarbonitrile], the IC50 is < 100 nM.

Turning to `CC1=C(C#N)C(c2cccc(C(=O)NCCCn3ccnc3)n2)C(C#N)=C(C)N1` [compound 191, 3′,5′-dicyano-1′,4′-dihydro-N-[3-(1H-imidazol-1-yl)propyl]-2′,6′-dimethyl-[2,4′-bipyridine]-6-carboxamide], the IC50 fell in the range of 100 to 500 nM.

Consider `COC(=O)c1cccc(C2C(C#N)=C(C)NC(c3ccc([N+](=O)[O-])cc3)=C2C#N)c1` (centres unmarked) [compound 233, 3-[3,5-dicyano-1,4-dihydro-2-methyl-6-(4-nitrophenyl)-4-pyridinyl]-benzoic acid, methyl ester], for which the IC50 is 500 to 2500 nM.
